Source: ChEMBL document CHEMBL1201862, “PubChem BioAssay data set” (2004)
The source made the active and inactive calls.

Experiments:
[1] = biological target: Luciferin 4-monooxygenase (Photinus pyralis, UniProt P08659); assay: inhibition of purified Photinus pyralis luciferase – biochemical, luminescence, dose response (AID 1891)
[2] = Luminescence Cell-Based Dose Confirmation HTS to Identify Inhibitors of Platelet Dense Granule Release. [Related pubchem assays: 1663 (Primary HTS), 1678 (Summary of Project)]; type: functional
[3] = biological target: T1, Corticotropin-releasing factor receptor 2/Corticotropin-releasing factor-binding protein (Homo sapiens, UniProt P24387+Q13324); assay: activators of CRF receptor 2 with binding protein – uHTS hits, confirmation (AID 602473); type: functional; conditions: read-out: EC50_Mean
T1 sequence (Q13324 whole entry): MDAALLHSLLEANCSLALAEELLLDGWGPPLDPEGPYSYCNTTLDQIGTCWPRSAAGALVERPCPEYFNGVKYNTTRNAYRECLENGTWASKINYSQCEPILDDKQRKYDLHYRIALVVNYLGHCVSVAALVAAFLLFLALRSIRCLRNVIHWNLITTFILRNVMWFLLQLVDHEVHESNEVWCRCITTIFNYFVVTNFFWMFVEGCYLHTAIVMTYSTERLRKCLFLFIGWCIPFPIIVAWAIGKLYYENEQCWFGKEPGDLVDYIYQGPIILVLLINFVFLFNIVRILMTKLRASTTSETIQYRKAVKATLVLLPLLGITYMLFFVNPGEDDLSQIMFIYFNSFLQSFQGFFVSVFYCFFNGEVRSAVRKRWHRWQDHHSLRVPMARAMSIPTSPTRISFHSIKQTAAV
T1 sequence (P24387 whole entry): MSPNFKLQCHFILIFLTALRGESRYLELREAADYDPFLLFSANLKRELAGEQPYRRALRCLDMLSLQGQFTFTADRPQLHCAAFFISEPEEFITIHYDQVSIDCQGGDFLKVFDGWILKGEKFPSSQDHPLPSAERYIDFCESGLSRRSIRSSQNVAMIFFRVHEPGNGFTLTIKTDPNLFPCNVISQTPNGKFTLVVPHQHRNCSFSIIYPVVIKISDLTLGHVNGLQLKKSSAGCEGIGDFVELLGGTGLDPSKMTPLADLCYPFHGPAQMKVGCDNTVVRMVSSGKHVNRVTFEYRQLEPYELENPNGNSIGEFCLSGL

[4] = biological target: T1, Corticotropin-releasing factor receptor 2/Corticotropin-releasing factor-binding protein; assay: Dose Response confirmation of uHTS hits for small molecule antagonists of the CRF-binding protein and CRF-R2 receptor complex.; type: functional; conditions: read-out: IC50_Mean
[5] = biological target: T2, Calpain-2 catalytic subunit (Sus scrofa, UniProt P43367); assay: m-calpain protease blockers, concentration series – biochemical, fluorogenic peptide substrate, dose response (AID 1420); type: functional
T2 sequence (P43367 whole entry): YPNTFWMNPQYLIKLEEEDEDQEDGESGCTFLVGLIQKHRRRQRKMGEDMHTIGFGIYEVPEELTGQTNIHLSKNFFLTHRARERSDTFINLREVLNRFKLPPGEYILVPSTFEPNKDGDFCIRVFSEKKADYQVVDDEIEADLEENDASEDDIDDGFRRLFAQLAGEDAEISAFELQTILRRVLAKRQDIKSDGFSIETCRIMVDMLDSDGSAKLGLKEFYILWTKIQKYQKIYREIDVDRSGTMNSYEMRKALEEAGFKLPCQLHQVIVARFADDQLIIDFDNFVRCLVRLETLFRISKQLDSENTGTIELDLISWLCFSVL

[6] = cells; type: functional
[7] = Trypanosoma cruzi growth suppression in host cells – NIH3T3 host cells, beta-gal luminescence, confirmation (AID 2044); type: functional, cell-based;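 further: intracellular parasites grown in NIH/3T3 mouse fibroblasts as host cells; luminescent beta-galactosidase reporter signal from transgenic T. cruzi replicating inside host cells; inhibitors lower the luminescence signal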
[8] = NIH3T3 cell viability loss – ATP luminescence, mouse fibroblasts, counter-screen, dose response (AID 2010); type: functional, cell-based;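 further: cells exposed to compound for about 90 hours before reading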
[9] = biological target: FAD-linked sulfhydryl oxidase ALR (Homo sapiens, UniProt P55789); assay: ALR-catalysed DTT oxidation blockers – biochemical, H2O2 detection, luminescence, cherry-pick, dose response (AID 493248)
[10] = microbe, parasite or virus in culture; type: functional; conditions: Mycobacterium tuberculosis
[11] = biological target: T3, Heat shock factor protein 1 (Mus musculus, UniProt P38532); assay: decrease of HSF1-responsive luciferase luminescence – cell-based, NIH3T3, dose retest, confirmation (AID 2382); type: functional;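 further: NIH3T3 fibroblasts with HSF1-driven luciferase reporter stressed by proteasome inhibitor MG132; luminescence from HSF1-driven luciferase expression after 8 hours of MG132 stress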
T3 sequence (P38532 whole entry): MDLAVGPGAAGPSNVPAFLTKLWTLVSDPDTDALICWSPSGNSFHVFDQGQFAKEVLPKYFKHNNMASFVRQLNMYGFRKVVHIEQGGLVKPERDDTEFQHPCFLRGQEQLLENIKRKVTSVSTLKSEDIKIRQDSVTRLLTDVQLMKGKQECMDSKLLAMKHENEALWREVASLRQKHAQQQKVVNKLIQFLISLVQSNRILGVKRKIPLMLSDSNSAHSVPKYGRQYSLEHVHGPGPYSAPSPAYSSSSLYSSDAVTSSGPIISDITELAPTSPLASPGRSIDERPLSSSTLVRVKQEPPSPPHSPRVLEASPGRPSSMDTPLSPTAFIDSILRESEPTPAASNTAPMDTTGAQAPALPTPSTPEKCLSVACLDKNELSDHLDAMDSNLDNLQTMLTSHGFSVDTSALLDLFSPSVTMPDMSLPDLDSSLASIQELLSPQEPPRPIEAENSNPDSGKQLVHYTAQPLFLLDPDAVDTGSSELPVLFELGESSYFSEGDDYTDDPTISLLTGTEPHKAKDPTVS

[12] = biological target: Cytochrome P450 2C19 (Homo sapiens, UniProt P33261); assay: Cytochrome panel assay with activity outcomes. Panel member name: p450-cyp2c19 Compounds with AC50 equal or less than 10 uM are considered active; type: functional
[13] = system: H4; assay: Luminescence Cell-Based Dose Response HTS to Identify Activators of 5'UTR Stem-Loop Driven Prion Protein mRNA Translation in H4 Neuroglioblastoma Cells. [Related pubchem assays: 1829 (Project Summary), 1814 (Primary HTS)]; type: functional; conditions: Homo sapiens
[14] = Luminescence Cell-Based Dose Response HTS to Identify Activators of Luciferase Translation or Activity in H4 […] Cells. [Related pubchem assays: 1829 (Project Summary), 1814 (Primary HTS)]; type: functional
[15] = Luminescence Cell-Based Dose Confirmation HTS to Identify Activators of 5'UTR Stem-Loop Driven Alpha-Synuclein mRNA Translation in H4 Neuroglioblastoma Cells. [Related pubchem assays: 1829 (Project Summary), 1814 (Primary HTS)]; type: functional

FAD-linked sulfhydryl oxidase ALR, sequence (P55789 whole entry): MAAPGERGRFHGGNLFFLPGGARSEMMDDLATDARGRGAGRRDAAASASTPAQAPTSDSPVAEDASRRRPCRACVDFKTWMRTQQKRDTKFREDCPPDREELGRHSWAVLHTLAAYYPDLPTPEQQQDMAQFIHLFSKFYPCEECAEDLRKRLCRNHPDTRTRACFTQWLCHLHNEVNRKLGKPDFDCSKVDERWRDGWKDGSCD
Luciferin 4-monooxygenase, sequence (P08659 whole entry): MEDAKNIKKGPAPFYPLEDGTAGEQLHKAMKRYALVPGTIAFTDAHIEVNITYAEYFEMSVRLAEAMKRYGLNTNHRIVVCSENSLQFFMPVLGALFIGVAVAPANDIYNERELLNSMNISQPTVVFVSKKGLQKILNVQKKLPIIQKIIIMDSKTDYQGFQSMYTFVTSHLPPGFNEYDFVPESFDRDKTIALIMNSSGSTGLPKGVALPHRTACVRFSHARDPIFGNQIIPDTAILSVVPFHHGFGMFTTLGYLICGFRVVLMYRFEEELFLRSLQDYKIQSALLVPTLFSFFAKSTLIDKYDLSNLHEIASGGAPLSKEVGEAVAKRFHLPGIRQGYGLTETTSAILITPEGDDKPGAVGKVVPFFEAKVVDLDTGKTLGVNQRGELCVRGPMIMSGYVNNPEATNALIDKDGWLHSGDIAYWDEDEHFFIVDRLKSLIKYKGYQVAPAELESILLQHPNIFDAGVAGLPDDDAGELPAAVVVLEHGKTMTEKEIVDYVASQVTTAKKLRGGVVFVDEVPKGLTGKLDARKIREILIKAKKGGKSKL
Cytochrome P450 2C19, sequence (P33261 whole entry): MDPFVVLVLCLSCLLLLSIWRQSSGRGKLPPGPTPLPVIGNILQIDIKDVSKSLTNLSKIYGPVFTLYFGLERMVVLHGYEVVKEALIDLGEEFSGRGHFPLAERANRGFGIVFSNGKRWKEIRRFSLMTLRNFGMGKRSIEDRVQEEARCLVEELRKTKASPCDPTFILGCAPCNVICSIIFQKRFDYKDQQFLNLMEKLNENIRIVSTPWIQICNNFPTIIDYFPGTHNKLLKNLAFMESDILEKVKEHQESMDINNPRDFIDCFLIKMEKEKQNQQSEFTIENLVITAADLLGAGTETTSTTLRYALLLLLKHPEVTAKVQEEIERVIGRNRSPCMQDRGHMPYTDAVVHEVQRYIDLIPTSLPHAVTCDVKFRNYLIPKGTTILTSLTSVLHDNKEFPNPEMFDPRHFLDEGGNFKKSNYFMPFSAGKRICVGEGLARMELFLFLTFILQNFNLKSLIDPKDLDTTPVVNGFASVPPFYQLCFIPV

COc1ccc(CC(=O)Nc2cccc(-c3cn4ccccc4n3)c2)cc1
EC50 [1]: > 112 µM (not active)
EC50 [2]: > 112 µM (not active)

O=C(NCc1cccs1)c1ccc(C[S+]([O-])Cc2cccc(Cl)c2)o1 (stereo not given)
EC50 [3]: > 53 µM (inactive)
IC50 [4]: > 47.1 µM (inactive)

O=C(Cn1cc(C(=O)c2ccco2)c2ccccc21)Nc1ccccc1
IC50 [5]: 3.26 µM (not active)

CCOC(=O)Cn1/c(=N/C(=O)CSC(C)=O)sc2ccccc21
EC50 [1]: > 112 µM (not active)
EC50 [2]: > 112 µM (not active)

O=C(CCN1CCOCC1)c1ccc(Cl)cc1
IC50 [6]: 22.5 µM (active)
EC50 [7]: 1.74 µM (active)
EC50 [8]: > 60 µM (not active)

COc1ccc(CN(CCc2c[nH]c3ccccc23)Cc2ccc(OC)cc2)cc1
EC50 [3]: > 53 µM (inactive)
IC50 [4]: > 47.1 µM (inactive)

CCNc1nc(NCC)nc(N/N=C/c2ccc(N(C)C)cc2)n1
AC50 [9]: 2.33 µM (active)

CCN(CC)c1nc(NN)nc(Nc2ccc(C)c(Cl)c2)n1
CC50 [10]: 31.8 µM (active)

Cc1ccc(-n2c(-c3ccc(Cl)cc3)n[nH]c2=S)c(C)c1
AC50 [9]: 2.08 µM (active)

COc1cc(OC)nc(Oc2ccccc2C(=O)Oc2ccc(Cl)cc2)n1
EC50 [11]: > 195 µM (not active)
CC50 [10]: > 40 µM (active)

O=C(Nc1nccs1)C1CCN(S(=O)(=O)c2ccc(Cl)c(C(F)(F)F)c2)CC1
EC50 [1]: > 112 µM (not active)
EC50 [2]: > 112 µM (not active)

CCN(CCNC(=O)c1cccc(N2CCCC2=O)c1)c1ccccc1
AC50 [9]: 0.508 µM (active)

Cc1nc(NC(=O)c2ccccc2)sc1C1(C)CC(c2ccc(OC(F)(F)F)cc2)=NO1 (stereo not given)
CC50 [10]: > 40 µM (active)

Cc1c(NC(=O)c2c(N)n(-c3ccccc3)c3nc4ccccc4nc23)c(=O)n(-c2ccccc2)n1C
EC50 [1]: > 112 µM (not active)
EC50 [2]: > 112 µM (not active)

CCN(CC)c1ccc(/C=N\NC(=O)c2cccc3cc[nH]c23)cc1
EC50 [3]: > 53 µM (inactive)
IC50 [4]: > 47.1 µM (inactive)

CSC(=S)N/N=C/c1ccccc1
CC50 [10]: > 40 µM (active)

COc1ccc(/C=C/C(=O)NC(=S)Nc2cc3oc4ccccc4c3cc2OC)cc1
IC50 [5]: > 50 µM (not active)

COc1ccc(/C=N/NC(=O)c2cc[nH]n2)cc1CSc1ccccn1
AC50 [9]: 0.68 µM (active)

O=C1CCC(C(=O)Nc2ccccc2N2CCOCC2)=NN1
EC50 [3]: > 53 µM (inactive)
IC50 [4]: > 47.1 µM (inactive)

CCOC(=O)N1CCN(C(=O)Cn2cnc3ccccc3c2=O)CC1
EC50 [3]: > 53 µM (inactive)
IC50 [4]: > 47.1 µM (inactive)

COc1ccc(OC(=O)c2cc3cc(Cl)ccc3oc2=O)cc1
IC50 [6]: 7.33 µM (active)

Cc1ccc(C)n1-c1ccc(C(=O)NN=C2CCCC2)cc1
EC50 [1]: > 112 µM (not active)
EC50 [2]: > 112 µM (not active)

Nc1c(C(=O)OCC2CCCO2)c2nc3ccccc3nc2n1C1CCCC1 (stereo not given)
CC50 [10]: 38.3 µM (active)

Cc1ccc(C(=O)NCCCNc2ccccc2[N+](=O)[O-])cc1
IC50 [5]: 25.2 µM (not active)

COC(=O)COc1ccc2c(-c3cccc([N+](=O)[O-])c3)cc(=O)oc2c1
IC50 [6]: 2.9 µM (active)
AC50 [12]: 0.251 µM (inconclusive)

O=C(CCCc1c[nH]c2ccccc12)N1CCCCCC1
EC50 [13]: 34.2 µM (active)
EC50 [14]: 7.67 µM (active)
EC50 [15]: 8.16 µM (active)

C=CCN(C(=O)CSc1nc2c(sc3ccccc32)c(=O)n1CCN(CC)CC)c1ccccc1
EC50 [7]: 0.606 µM (active)
EC50 [8]: 11 µM (active)
CC50 [10]: 31.9 µM (active)

Cc1ccc(Oc2cc(C)nc(-c3ccccc3O)n2)cc1
EC50 [13]: 44 µM (inconclusive)
EC50 [14]: 15 µM (active)
EC50 [15]: 12.9 µM (active)

O=C(N/N=C/c1cccc(O)c1)N/N=C/c1cccc(O)c1
AC50 [9]: 0.797 µM (active)

Cc1cc(C(=O)CSc2nnc(-c3cccnc3)n2-c2ccccc2)c(C)n1CC1CCCO1 (stereo not given)
EC50 [13]: > 60 µM (not active)
EC50 [14]: 18.7 µM (active)
EC50 [15]: 8.04 µM (active)

CC1(C)Cc2c(sc3[nH]c(=O)n(CC(=O)NCC4CCCO4)c(=O)c23)CO1 (stereo not given)
EC50 [3]: > 53 µM (inactive)
IC50 [4]: > 47.1 µM (inactive)

CCOc1ccc(C(=O)Nc2nnc(C3=COCCO3)o2)cc1
IC50 [6]: 3.65 µM (active)

CCc1noc(C)c1C(=O)Nc1cc(Cl)ccc1N1CCCC1
AC50 [9]: 1.15 µM (active)

CC(=O)c1cccc(NC(=O)c2c(F)c(F)c(F)c(F)c2F)c1
IC50 [5]: 17.2 µM (not active)

CC(=O)NCCc1c(C)n(Cc2ccccc2)c2ccccc12
AC50 [9]: 3.02 µM (active)

COC(=O)/C=c1/s/c(=C(\C#N)C(=O)NCc2ccco2)n(-c2ccccc2)c1=O
EC50 [3]: > 53 µM (inactive)
IC50 [4]: > 47.1 µM (inactive)

Oc1ccc(N=Nc2n[nH]c(-c3ccc(Cl)cc3)n2)cc1
CC50 [10]: 28.1 µM (active)
EC50 [13]: > 120 µM (not active)
EC50 [14]: 8.25 µM (active)
EC50 [15]: > 120 µM (not active)

Cc1ccc(NC(NC(=O)c2ccccn2)C(Cl)(Cl)Cl)cc1 (stereo not given)
AC50 [9]: 0.731 µM (active)

COc1ccccc1N1CCN(CC(=O)Nc2c(C)n[nH]c2C)CC1
EC50 [3]: > 53 µM (inactive)
IC50 [4]: > 47.1 µM (inactive)

NC(=S)N/N=C/c1coc2c(ccc3ccccc32)c1=O
IC50 [5]: 24.6 µM (not active)

CC1CC(N(C(=O)c2ccco2)c2ccccc2)c2ccccc2N1 (stereo not given)
AC50 [9]: 0.465 µM (active)

COc1cc(-c2csc(CCn3nc(C)cc3C)n2)cc(OC)c1OC
AC50 [9]: 0.059 µM (active)

CCCC1CC(C)(c2csc(Nc3ccc(OCC)cc3)n2)OC1=O (stereo not given)
CC50 [10]: > 40 µM (active)

CCc1cc(C(=O)NNC(=O)CCl)sc1C
CC50 [10]: 23.8 µM (active)

NS(=O)(=O)c1ccc(NC(=O)COC(=O)C23CC4CC(CC(C4)C2)C3)cc1
IC50 [5]: 3.33 µM (not active)

CCSc1nnc(NC(=O)Cc2cccc(OC)c2)s1
IC50 [5]: 2.28 µM (not active)

COc1ccc(C(=N)NOC(=O)Cc2ccccc2[N+](=O)[O-])cc1
IC50 [5]: 10.1 µM (not active)

CCOC(=O)C1(Cc2cccc(OC)c2)CCCN(C(=O)CCN2CCCO2)C1 (stereo not given)
EC50 [13]: 2 µM (active)
EC50 [14]: 9.65 µM (active)
EC50 [15]: 11.1 µM (active)

CCCc1cc(-c2nnc(S)n2Cc2ccccc2)cs1
IC50 [5]: 22.1 µM (not active)

COc1cc2cnc(-c3ccccc3)c(-c3ccc(C(F)(F)F)cc3)c2cc1OC
CC50 [10]: > 40 µM (active)
